Results on four compounds are retold here after US20080293700A1, “Compositions and Methods Relating to Novel Compounds and Targets Thereof” (priority 2004, published 2008).

SMILES strings stand for the structures. Read-outs that look alike come from different tables or passages of the source.

The subject of one assay is F1Fo-ATPase. As to conditions: cited from earlier work.
Assay [1] has as its target T1, ATP hydrolytic activity of sub-mitochondrial particles (SMPs), mitochondrial F1Fo-ATPase (Bos taurus, UniProt P13621).
T1 construct: from tissue; host or cells: sub-mitochondrial particles (SMPs)
The assay is described as follows: NADH-coupled kinetics assay of ATP hydrolysis by sub-mitochondrial particles. The conditions noted are these: for Ki: non-competitive (mixed) model; for Km / Vmax: three-dimensional fit. It is filed as biochemical, bovine. As for the experimental part:
The mechanism of inhibition for ATP hydrolysis induced by Bz-423 and derivatives of Bz-423 was assayed using an NADH-coupled assay. The ATP hydrolytic activity of the sub-mitochondrial particles (hereinafter SMPs) was measured by coupling the production of ADP to the oxidation of NADH via the pyruvate kinase and lactate dehydrogenase reaction. Briefly, ATP hydrolysis SMPs (0.8 mg; 7.14 μg/well) were added to hydrolysis buffer (100 mM Tris-HCl, pH 8.0 at 25° C., 4 mM MgCl2, […], 0.2 mM EDTA) and vortexed. 125 μL of this suspension was added to each well of a 96-well plate containing 50× drug or DMSO vehicle control (1% DMSO, final). The 96-well plate was then placed at 30° C. in a Molecular Devices Versamax tunable microplate reader and allowed to incubate for 5 min. During this 5 min, a substrate-coupling mixture was prepared (containing X mM ATP, 0.2 mM NADH, 1 mM phosphoenolpyruvate (PEP), 2 U/mL pyruvate kinase (PK), and 2 U/mL lactate dehydrogenase (LDH) in hydrolysis buffer). The rate of hydrolysis was assayed over a range of ATP concentrations (0.1-4.0 mM) at each [Bz]. 125 μL of the substrate-coupling mixture was added to each well, and the rate of NADH oxidation was monitored for 10 min at 340 nm, 30° C. The measured decrease in absorbance over time (in OD/min) was converted to μmol ATP hydrolyzed/min/mg SMP (ε=6220). The velocity data was plotted versus [ATP] for each concentration of [Bz] (e.g., 1-8 μM) (see, e.g., FIG. 1) and then fit to the Michaelis-Menten equation:
m1*m0/(1+m0/m2) • where m1=Vmax/Km and m2=Km The apparent kinetic parameters for each [Bz] were obtained from these curve fits to generate secondary plots of [Bz] versus Vmax, [Bz] versus Km, and [Bz] versus Vmax/Km (see, e.g., FIG. 2). The o-tert-Butyl derivative, shown below,
To obtain Ki values and confirm that an uncompetitive model of inhibition was the best fit for the data, three-dimensional fits of the velocity, [ATP], and [Bz] were performed to solve for Vmax, Km, Ki, and Ki* [where Ki indicates Bz binding to the ATPase with the third catalytic site empty (mixed-type inhibition only), and Ki* indicates binding when all three sites have substrate bound (uncompetitive and mixed-type inhibition)]. The following equations were used:
Vo=Vmax[S]/((1+[I]/Ki)Km+[S])
Vo=Vmax[S]/((1+[I]/Ki*) [S]+Km)
Vo=Vmax[S]/((1+[I]/Ki)Km+(1+[I]Ki*)[S])

Where [2] appears, read: binding with third catalytic site empty.
Setting [3] is: non-competitive (mixed) inhibition model.

As for `COC[C@@H](C[C@H]1O[C@@](O)([C@H](O)[C@@H]2C[C@H](OC)[C@@H](O)CC/C=C(C)/C=C/[C@@H](O[C@@H]3O[C@@H](C)[C@H](OC)[C@@H](O)[C@@H]3O)[C@H](C)/C=C(C)/C=C(C)/C=C(\C)C(=O)O2)[C@H](C)[C@@H](O)[C@H]1C)OC1C[C@](C)(O)[C@@H](O[C@H]2C[C@@H](OC)[C@H](O)[C@@H](C)O2)[C@H](C)O1` (some centres unmarked) [apoptolidin], the “mode of inhibition of the F1Fo-ATPase” value in the assay on F1Fo-ATPase is recorded as “non-competitive”.

Regarding `CN1C(=O)C(Cc2ccc(OC(C)(C)C)cc2)N=C(c2ccc(O)cc2)c2cc(Cl)ccc21` (centres unmarked) [o-tert-Butyl], the “mechanism of inhibition of ATP hydrolysis” value in assay [1] was “uncompetitive”. Also, the Ki result in assay [1] (setting [2]) is reported as “no fit”. In addition, the “effect on apparent Km” value in assay [1] (secondary plot [Bz] versus Km, [Bz] 1-8 μM) is on record as “decreased”. For the same compound, the “effect on apparent Vmax” value in assay [1] (secondary plot [Bz] versus Vmax, [Bz] 1-8 μM) is on record as “decreased”. Further, the figures for the Km in assay [1] (competitive inhibition model) and in assay [1] (uncompetitive inhibition model) were 250 ± 20 µM and 390 ± 300 µM, respectively. Further, the Vmax in assay [1] (competitive inhibition model) was 1.25 ± .01; in assay [1] (setting [3]), 1.53 ± .03; in assay [1] (uncompetitive inhibition model), 1.53 ± 0.03.

Consider `CC[C@H]1/C=C/C=C/C[C@@H](C)[C@H](O)[C@@](C)(O)C(=O)[C@@H](C)[C@H](O)[C@@H](C)C(=O)[C@@H](C)[C@H](O)[C@@H](C)/C=C/C(=O)O[C@@H]2[C@H](C)[C@H](CC1)O[C@]1(CC[C@H](C)[C@H](C[C@@H](C)O)O1)[C@H]2C` [oligomycin], for which, on F1Fo-ATPase, the IC50 was 0.01 µM and the “mode of inhibition of the F1Fo-ATPase” value is “non-competitive”.

Consider `CN1C(=O)C(Cc2ccc3ccccc3c2)N=C(c2ccc(O)cc2)c2cc(Cl)ccc21` (centres unmarked) [Bz-423], for which the “mechanism of inhibition of ATP hydrolysis” value in assay [1] is listed as “uncompetitive”. Further, the Ki in assay [1] (binding when all three sites have substrate bound, read-out: Ki*) is 18.9 ± 6.3 µM; in assay [1] (setting [2]), “no fit”. Moreover, the Km in assay [1] (competitive inhibition model) turned out to be 400 ± 100 µM; in assay [1] (uncompetitive inhibition model) it was 680 ± 100 µM. The figures for the Vmax in assay [1] (competitive inhibition model), in assay [1] (setting [3]) and in assay [1] (uncompetitive inhibition model) were 2.62 ± 0.9, 3.37 ± 1.4 and 3.34 ± 1.3, respectively.
